Test results as given in patent publication US11192894B2, “Cell impermeable coelenterazine analogues” (PROMEGA CORPORATION, priority 2016, dated 2021).

Assays:
[1] = test system: Nluc-b2 adrenergic receptor (B2AR); test: Bioluminescence imaging of Nluc-B2AR in HeLa cells; type: cell-based; conditions: 10 uM substrate, Olympus LV200, FIGS. 4A and 4B
Experimental: FIGS. 4A and 4B show the results of imaging of Nluc-B2AR in HeLa cells using furimazine and JRW-0769. HeLa cells were reverse transfected with an expression construct for Nluc-b2 adrenergic receptor (B2AR) and plated into a LabTEKII chambered coverslip (50,000 cells per well in 400 uL medium) and incubated overnight. For imaging, the medium was removed and replaced with CO2-independent medium. Immediately before placing the sample onto the imaging instrument, Furimazine or JRW-0769 was added to the cells at a final concentration of 10 uM. Image acquisition was performed on an Olympus LV200 bioluminescence imager using a 40×/0.95 NA objective with electromultiplying gain set to 400 and an acquisition time of 0.5 sec (Furimazine) and 2.5 sec (JRW-0769).
HeLa cells were reverse transfected with an expression construct for Nluc-b2 adrenergic receptor (B2AR) and plated into a LabTEKII chambered coverslip (50,000 cells per well in 400 uL medium) and incubated overnight. For imaging, the medium was removed and replaced with CO2-independent medium. Immediately before placing the sample onto the imaging instrument, Furimazine or JRW-0769 was added to the cells at a final concentration of 10 uM. […]

[2] = target: purified NANOLUC® Luciferase (Oplophorus gracilirostris, UniProt Q9GV45, A31E/A60N/A81I/F95D/I117V/K70R/L54V/L99Q/M102K/N193R/P142E/Q151K/Q38R/Q45L/V71I/Y165I); type: biochemical; conditions: for RLU at 100 uM: relative value, furimazine set to 1, purified NanoLuc, initial light output three minutes after substrate addition
Experimental: Each compound to be screened was dissolved in DMSO (5 mM) and then further diluted to 100 uM in NANO-GLO® Luciferase Assay Buffer. Each diluted substrate was then combined in equal volumes with purified NANOLUC® Luciferase diluted into CO2 independent media+10% FBS. Initial light output for each substrate was measured in a GloMax®-Multi+ luminometer three minutes after substrate addition and then at five minute intervals as a means to determine signal half-life. […] Km was calculated using GraphPad Prism using non linear Michaelis-Menten regression.

KDR:NanoLuc [3] = test: Cell-based luciferase assay, HEK293 cells expressing KDR:NanoLuc (NanoLuc in the interior of the cell), ± extracellular inhibitor JRW-0344; conditions: HEK293 expressing KDR:Nluc; 10 μM substrate ± 20 μM JRW-0344; FIG. 2C
Experimental: (§1) FIGS. 2A-2D show extracellular bioluminescent activity of exemplary compounds in HEK293 cells. HEK293 cells were transfected with two different membrane bound NANOLUC® fusions: 1) NanoLuc:KDR, presenting NanoLuc on the outside of the membrane; 2) KDR:NanoLuc, presenting NanoLuc on the inside of the membrane. The cell impermeable NANOLUC® inhibitor JRW-0344 (disclosed in U.S. Ser. No. 15/192,420 to Duellman et al., “THIENOPYRROLE COMPOUNDS AND USES THEREOF,” filed Jun. 24, 2016), was added to the cells to inhibit extracellular bioluminescent activity.
(§2) HEK293 cells were maintained in DMEM containing 100 IU/ml penicillin, 100 μg/ml streptomycin, and 10% fetal calf serum at 37° C. in 5% CO2. Dulbecco's modified eagle medium (DMEM), Opti-MEM, Penicillin/Streptomycin, and Trypsin-EDTA are purchased from Life Technologies (Carlsbad). Fetal calf serum (FBS) is purchased from HyClone (GE Healthcare). Microtiter plates were purchased from Corning.
(§3) HEK293 cells were transiently transfected with two different integral membrane NanoLuc fusion proteins: 1) NanoLuc:KDR, presenting NanoLuc on the cell surface; 2) KDR:NanoLuc, presenting NanoLuc in the interior of the cell. After 24 hours, transfected cells were collected, resuspended in OptiM at 200,000 cell/ml and plated into wells of white, 96-well plates at 100 μL/well. For luminescent measurements, cells were treated with the indicated substrates at a final concentration of 10 μM or 20 μM in the presence or absence of 20 μM cell impermeable NanoLuc inhibitor JRW-0344. The luminescent signal was analyzed 3 minutes after substrate addition using a GLOMAX® Discover multimode detection plate reader (Promega).

NanoLuc:KDR = test: Cell-based luciferase assay, HEK293 cells expressing NanoLuc:KDR (NanoLuc on the cell surface), ± extracellular inhibitor JRW-0344; conditions: 10 μM substrate ± 20 μM inhibitor, FIG. 2A
Experimental: as §1, §2, §3

KDR:NanoLuc [4] = test: Lytic vs. live cell format, HEK293 cells expressing KDR:NanoLuc; type: cell-based; conditions: digitonin (lytic) or JRW-0344 (live), FIG. 3C
Experimental: (§4) FIGS. 3A-D show the activities of cell permeable and cell impermeable compounds at various substrate concentrations. HEK293 cells were transfected (1:100 carrier DNA) with the fusion protein KDR:NanoLuc, which presents membrane bound NanoLuc on the inside of the membrane. Cells were then treated with digitonin (for lytic format) or JRW-0344 (for live cell format). Both sets were treated with varying substrate concentrations to give Michaelis-Menten type plots. […] However, substrates that are cell impermeable (or mostly impermeable) show large differences between live and lytic cell formats (FIG. 3C).
as §4, with “HEK293” for “FIGS. 3A-D show the activities of cell permeable and cell impermeable compounds at various substrate concentrations. HEK293”, “digitonin to lyse the cell membrane” for “digitonin”, “format) to compare activity of cell permeable and non-cell permeable substrates.” for “format).”

purified NANOLUC® Luciferase, sequence (Q9GV45 28-196 with tags or gaps with the stated changes limits assumed): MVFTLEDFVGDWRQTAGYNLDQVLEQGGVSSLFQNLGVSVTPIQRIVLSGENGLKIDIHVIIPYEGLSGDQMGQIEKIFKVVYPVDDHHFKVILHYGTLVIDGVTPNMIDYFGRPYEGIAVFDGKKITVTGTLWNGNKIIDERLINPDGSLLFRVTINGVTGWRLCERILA

Question: What does the source list for `O=c1c(Cc2ccco2)nc2c(Cc3ccccc3)[nH]c(-c3ccccc3)cn1-2` [Furimazine, reference compound]?
Answer: Localization of the imaged Nluc-B2AR signal [1]: intracellular Nluc-B2AR; RLU (absolute light output that is set to 1) ([2]; 2.5 ng/mL NanoLuc): ~1.0×10^7 RLU; RLU at 100 uM [2]: 1

Question: With `O=c1c(Cc2cccc(OCCCCCCS(=O)(=O)[O-])c2)nc2c(Cc3ccccc3)[nH]c(-c3ccccc3)cn1-2.[Na+]` [JRW-0703, sodium 6-(3-((8-benzyl-3-oxo-6-phenyl-3,7-dihydroimidazo[1,2-a]pyrazin-2-yl)methyl)phenoxy)hexane-1-sulfonate] as the compound, how does the “RLU and effect of the extracellular inhibitor” value (KDR:NanoLuc [3]) read?
Answer: much dimmer and can be inhibited close to background level

Question: What about the “Difference in RLU's in the presence and absence of the extracellular inhibitor” value (NanoLuc:KDR) of the same compound?
Answer: Larger differences in RLU's

Question: What about the “RLU at 100 uM” value [2] of the same compound?
Answer: 0.016

Question: And the “Lowered activity in the live cell format versus lytic format” value (KDR:NanoLuc [4])?
Answer: 100 fold

Question: How did the “RLU and effect of the extracellular inhibitor” value (KDR:NanoLuc [3]) turn out when `O=c1c(Cc2ccc(OCCCCCCS(=O)(=O)[O-])c(Cl)c2)nc2c(Cc3ccccc3)[nH]c(-c3ccccc3)cn1-2.[Na+]` [JRW-0728, sodium 6-(4-((8-benzyl-3-oxo-6-phenyl-3,7-dihydroimidazo[1,2-a]pyrazin-2-yl)methyl)-2-chlorophenoxy)hexane-1-sulfonate] was run?
Answer: much dimmer and can be inhibited close to background level

Question: And the “Difference in RLU's in the presence and absence of the extracellular inhibitor” value (NanoLuc:KDR)?
Answer: Larger differences in RLU's

Question: And the “RLU at 100 uM” value [2]?
Answer: 0.14

Question: What about the “Lowered activity in the live cell format versus lytic format” value (KDR:NanoLuc [4]) of the same compound?
Answer: 100 fold

Question: What does the source list for `O=c1c(Cc2ccc(OCCCCCCS(=O)(=O)[O-])c(F)c2)nc2c(Cc3ccccc3)[nH]c(-c3ccccc3)cn1-2.[Na+]` [JRW-0769, sodium 6-(4-((8-benzyl-3-oxo-6-phenyl-3,7-dihydroimidazo[1,2-a]pyrazin-2-yl)methyl)-2-fluorophenoxy)hexane-1-sulfonate]?
Answer: RLU and effect of the extracellular inhibitor (KDR:NanoLuc [3]): much dimmer and can be inhibited close to background level; Localization of the imaged Nluc-B2AR signal [1]: limited to membrane-localized receptor; Difference in RLU's in the presence and absence of the extracellular inhibitor (NanoLuc:KDR): Larger differences in RLU's; RLU at 100 uM [2]: 0.1; Lowered activity in the live cell format versus lytic format (KDR:NanoLuc [4]): 100 fold
